Measurements taken from patent US20240335404A1, “SUBSTITUTED ESTERS CONTAINING POLYOLS AND SACCHARIDES FOR TREATING HEPATOTOXICITY AND FATTY LIVER DISEASES” (SINEW PHARMA INC., priority 2015, published 2024).

System: fatty liver
Experiment: High fat diet-induced fatty liver in B6 mice
Format: in vivo
Conditions: HFD mice; for GSH / Gpx / Grd / SOD: liver; for ALT / AST / TC in liver / TG in liver: administration period of 4 weeks; for liver TC / liver TG: 4 or 8 weeks; for ALT and AST values: compounds administered separately
Description: More than four mice were used in each group of the pre-test, while more than twelve mice were used in each group of the confirmatory test. […] The animal test was carried out according to the guideline for animal experiment of National Health Research Institutes. […] The weight of mice was recorded once a week. The tested animals were grouped randomly into Blank, High Fat Diet control (HFD), Positive Control (PS), and Test group. The animals of Blank were fed with normal feed. The animals of HFD were fed with high fat feed. […] The animals of Test group were fed with high fat feed, and additionally fed with test compounds by a tube. The animals of Blank were fed casually with normal feed for 12 weeks, while the animals of HFD, PS, and Test group were fed casually with high fat feed for 12 weeks. After 8 weeks of feeding, the animals of Blank and HFD were fed with deionized water by a tube once a day; the animals of PS were fed with silymarin by a tube once a day; and the animals of Test Group were fed with test compounds by a tube once a day for a duration of 4 or 8 weeks. Before testing and in the eighth, twelfth, and sixteenth week after testing, blood was collected from the cheek or the heart. At the end of testing, all mice were weighted and then sacrificed, and blood was collected from the cheek or the heart simultaneously. The blood specimens of mice rested at room temperature for one hour to clot, and then the serum was separated by centrifugation in a refrigeration centrifuge at 15,700×g at 4° C. for 5 minutes. Afterwards, biochemical indices of liver function, including aspartate transaminase (AST), alanine aminotransferase (ALT), triglyceride (TG), total cholesterol (TCHO/TC), low-density lipoprotein cholesterol (LDL-C), and high-density lipoprotein cholesterol (HDL-C), were detected by the automatic blood biochemistry analyzer. In addition, abdominal fat and liver specimens were taken from the abdomens of sacrificed mice and weighted to compare the weight of fat and liver and obtain the ratio of liver weight to body weight. […] The cut sections proceeded with H&E staining for histopathological observation. Moreover, the rest of the liver was frozen for preservation and detection of the contents of triglyceride and total cholesterol in the liver. Furthermore, the liver function of animals of each group were analyzed by Galactose Single Point Method, which was recognized and recommended for quantification of remaining liver function in clinical use by U.S. FDA and Ministry of Health and Welfare, Taiwan. […] One hour after the administration, about 0.5 ml of whole blood was taken by using a filter paper to evaluate liver function of mice. The higher the value of GSP was, the worse the remaining liver function would be. (FDA: “Guidance for Industry: Pharmacokinetics in Patients with Impaired. Hepatic Function-Study Design, Data Analysis and Impact on Dosing and. Labeling. 2003. At the end of the test, all mice were sacrificed. […] Afterwards, xylene was replaced with hot paraffin solution. At last, the tissue was embedded with paraffin solution. The finished paraffin specimen was cut into […] paraffin sections by the microtome. The sections were pasted on clean slides, dried at 37° C., and then stained by H&E staining. In order to observe the changes of lesion, fat accumulation, necrosis, or fibrosis in liver cells when there was an ongoing liver damage, liver tissues were H&E stained to evaluate the degree of liver fat accumulation. All the histopathological sections were cut from the same position on the largest right lobe of liver for eliminating bias in subjective observation, and then subject to pathological staining. As for the assessment of semi-quantitative analysis in pathology, it had to be confirmed by a physician or a veterinary pathologist who conducted a double-blind analysis to score (NAS score) and compare all the sections without knowing the test design. […]

[1] = 1.5 mg/kg, test period of 4 weeks
[2] = 7.5 mg/kg, test period of 4 weeks
[3] = 4.5 mg/kg, test period of 4 weeks

OC[C@H]1O[C@H](O[C@]2(CCl)O[C@H](CCl)[C@@H](O)[C@@H]2O)[C@H](O)[C@@H](O)[C@H]1Cl [Sucralose]
weight of abdominal fat: reduce the weight of abdominal fat in animals significantly
GSH [1]: 1448.0 ± 281.5 U/L
Gpx [1]: 2995.0 ± 651.1 U/L
Grd [1]: 100.0 ± 18.6 U/L
SOD [1]: 373.0 ± 50.4 U/L
GSH [2]: 1609.1 ± 201.1 U/L
Gpx [2]: 3334.0 ± 377.7 U/L
Grd [2]: 90.4 ± 17.2 U/L
SOD [2]: 399.0 ± 34.5 U/L
Abdominal fat weight (1.5 mg/kg): 2.1 ± 0.6 g
Increase of body weight (1.5 mg/kg): 17.0 ± 5.6 g
Liver weight (1.5 mg/kg): 1.5 ± 0.2 g
ALT (1.5 mg/kg): 30.9 ± 16.8 U/L
AST (1.5 mg/kg): 127.0 ± 31.2 U/L
TC in liver (1.5 mg/kg): 3.0 ± 0.9 mg/g liver
TG in liver (1.5 mg/kg): 68.9 ± 37.5 mg/g liver
Abdominal fat weight (7.5 mg/kg): 2.4 ± 0.3 g
Increase of body weight (7.5 mg/kg): 8.3 ± 5.4 g
Liver weight (7.5 mg/kg): 1.4 ± 0.1 g
ALT (7.5 mg/kg): 32.3 ± 10.1 U/L
AST (7.5 mg/kg): 74.3 ± 18.6 U/L
TC in liver (7.5 mg/kg): 5.0 ± 0.9 mg/g liver
TG in liver (7.5 mg/kg): 56.8 ± 20.0 mg/g liver
liver TC: reduce TC in liver significantly
liver TG: reduce TG in liver significantly
liver antioxidant activity (4 weeks): improve antioxidant activity significantly
ALT and AST values: reduce ALT and AST values significantly

OC[C@@H](O)[C@@H](O)[C@H](O)[C@H](O)CO [Mannitol]
weight of abdominal fat: reduce the weight of abdominal fat in animals significantly
GSH [1]: 1502.5 ± 276.9 U/L
Gpx [1]: 2580.0 ± 555.2 U/L
Grd [1]: 95.3 ± 22.1 U/L
SOD [1]: 367.3 ± 35.6 U/L
GSH [3]: 1605.1 ± 305.9 U/L
Gpx [3]: 3423.3 ± 547.8 U/L
Grd [3]: 110.1 ± 18.4 U/L
SOD [3]: 429.2 ± 85.2 U/L
GSH [2]: 2147.7 ± 459.1 U/L
Gpx [2]: 3738.3 ± 665.1 U/L
Grd [2]: 117.6 ± 32.0 U/L
SOD [2]: 462.8 ± 52.8 U/L
Abdominal fat weight (1.5 mg/kg): 2.0 ± 0.3 g
Increase of body weight (1.5 mg/kg): 10.9 ± 7.4 g
Liver weight (1.5 mg/kg): 1.4 ± 0.2 g
ALT (1.5 mg/kg): 40.8 ± 11.4 U/L
AST (1.5 mg/kg): 187.2 ± 142.1 U/L
TC in liver (1.5 mg/kg): 3.4 ± 0.6 mg/g liver
TG in liver (1.5 mg/kg): 61.8 ± 32.6 mg/g liver
Abdominal fat weight (4.5 mg/kg): 2.7 ± 0.3 g
Increase of body weight (4.5 mg/kg): 11.1 ± 7.7 g
Liver weight (4.5 mg/kg): 1.4 ± 0.2 g
ALT (4.5 mg/kg): 44.5 ± 15.9 U/L
AST (4.5 mg/kg): 107.6 ± 54.3 U/L
TC in liver (4.5 mg/kg): 7.2 ± 2.8 mg/g liver
TG in liver (4.5 mg/kg): 71.5 ± 45.5 mg/g liver
Abdominal fat weight (7.5 mg/kg): 2.4 ± 0.3 g
Increase of body weight (7.5 mg/kg): 10.3 ± 8.5 g
Liver weight (7.5 mg/kg): 1.4 ± 0.1 g
ALT (7.5 mg/kg): 25.0 ± 10.8 U/L
AST (7.5 mg/kg): 63.3 ± 7.7 U/L
TC in liver (7.5 mg/kg): 4.7 ± 1.2 mg/g liver
TG in liver (7.5 mg/kg): 53.8 ± 24.4 mg/g liver
NAS [2]: 1.7 ± 0.8 mg/g liver
reduction in ALT value (4-week treatment, p<0.005): about 64%
reduction in AST value (4-week treatment, p<0.005): about 60%
liver TC: reduce TC in liver significantly
liver TG: reduce TG in liver significantly
liver antioxidant activity (4 weeks): improve antioxidant activity significantly
liver damage, NAS (4 weeks): reduce liver damage significantly
ALT and AST values: reduce ALT and AST values significantly
liver tissue sections, H&E (treated for 4 weeks, FIG. 5): large vesicular fat droplets within liver cells in liver tissue section were significantly reduced
